# pIC50: −log10 of the molar value. Where two headings read alike, the source gives them in different places.
# Key:
# [1] = test system: asynchronous 3D7-A10 parasite cultures; assay: Standard 72-h exposure asexual blood stage susceptibility assay (IC50^72h); assay type: cell-based, Plasmodium falciparum; settings: Plasmodium falciparum, 3D7, 72 h, read-out: Overall (72hr assay) Mean IC50 (IC50^72h)
# [2] = test system: 3D7-MR4 trophozoite parasite-infected RBCs; assay: Metabolomic profiling (hydrophilic metabolite changes, UHPLC-MS); assay type: cell-based, Plasmodium falciparum
# [3] = test system: Plasmodium falciparum 3D7-A10 parasites; assay: Stage specificity assay (8-h exposure of synchronized stages, IC50^8h); assay type: cell-based; settings: for pIC50: Plasmodium falciparum
smiles,measurement,setting,value
O=C(Nc1ccsc1C(=O)NC1CCCCC1)c1ccc(F)cc1 [MMV665939],pIC50,[1],6.32
same,Log2(fold changes) 3-phosphoglycerate,"[2]; metabolite 3-phosphoglycerate, log2 fold change",-0.3920
same,Log2(fold changes) 4-Pyridoxic acid,"[2]; metabolite 4-Pyridoxic acid, log2 fold change",-0.0874
same,Log2(fold changes) 4-aminobutyrate,"[2]; metabolite 4-aminobutyrate, log2 fold change",-0.3253
same,Log2(fold changes) 4-phosphopantetheine,"[2]; metabolite 4-phosphopantetheine, log2 fold change",0.0000
same,Log2(fold changes) 4-phosphopantothenate,"[2]; metabolite 4-phosphopantothenate, log2 fold change",-0.8024
same,Log2(fold changes) 5-aminopentanoic acid,"[2]; metabolite 5-aminopentanoic acid, log2 fold change",0.0000
same,Log2(fold changes) 5-methyl-THF,"[2]; metabolite 5-methyl-THF, log2 fold change",0.0000
same,Log2(fold changes) 5-phosphoribosyl-1-pyrophosphate,"[2]; metabolite 5-phosphoribosyl-1-pyrophosphate, log2 fold change",0.0000
same,Log2(fold changes) 6-phospho-D-gluconate,"[2]; metabolite 6-phospho-D-gluconate, log2 fold change",-0.2234
same,Log2(fold change) HVDD,[2]; metabolite HVDD,-0.9968
same,Log2(fold change) Hydroxyisocaproic acid,[2]; metabolite Hydroxyisocaproic acid,0.0000
same,Log2(fold change) IDP,[2]; metabolite IDP,0.0000
same,Log2(fold change) IMP,[2]; metabolite IMP,0.0265
same,Log2(fold change) Inositol,[2]; metabolite Inositol,0.0000
same,Log2(fold change) Isopentyl-PP,[2]; metabolite Isopentyl-PP,-0.3712
same,Log2(fold change) L-arginino-succinate,[2]; metabolite L-arginino-succinate,-0.4465
same,Log2(fold change) LD,[2]; metabolite LD,-0.2140
same,Log2(fold change) Myristoyl/tetradecanoyl-CoA,[2]; metabolite Myristoyl/tetradecanoyl-CoA,0.0000
same,Log2(fold change) N-Acetyl-L-alanine,[2]; metabolite N-Acetyl-L-alanine,1.1605
same,Log2(fold change) N-acetyl-L-ornithine,[2]; metabolite N-acetyl-L-ornithine,-0.6303
same,Log2(fold change) N-acetyl-glucosamine-1/6-phosphate,[2]; metabolite N-acetyl-glucosamine-1/6-phosphate,0.0837
same,Log2(fold change) N-acetyl-glutamate,[2]; metabolite N-acetyl-glutamate,-0.0309
same,Log2(fold change) N-acetyl-glutamine,[2]; metabolite N-acetyl-glutamine,0.1208
same,Log2(fold change) N-carbamoyl-L-aspartate,[2]; metabolite N-carbamoyl-L-aspartate,0.2551
same,Log2(fold change) NAD+,[2]; metabolite NAD+,-0.2042
same,Log2(fold change) NADH,[2]; metabolite NADH,0.1443
same,Log2(fold change) NADP+,[2]; metabolite NADP+,-0.0542
same,Log2(fold change) NADPH,[2]; metabolite NADPH,0.2171
same,Log2(fold change) O-acetyl-L-serine,[2]; metabolite O-acetyl-L-serine,-0.2734
same,Log2(fold change) Octoluse 8/1P,[2]; metabolite Octoluse 8/1P,-0.3337
same,Log2(fold change) Octoluse Bisphosphate,[2]; metabolite Octoluse Bisphosphate,-0.2536
same,Log2(fold change) PD,[2]; metabolite PD,-0.8727
same,Log2(fold change) PE,[2]; metabolite PE,-0.7610
same,Log2(fold change) PEE,[2]; metabolite PEE,-0.6388
same,Log2(fold change) PEEK,[2]; metabolite PEEK,-0.8443
same,Log2(fold change) PVNF,[2]; metabolite PVNF,-0.9198
same,Log2(fold change) Pyroglutamic acid,[2]; metabolite Pyroglutamic acid,0.4907
same,Log2(fold change) Pyrophosphate,[2]; metabolite Pyrophosphate,0.0000
same,Log2(fold change) Ribose-5-phosphate,[2]; metabolite Ribose-5-phosphate,-0.6260
same,Log2(fold change) S-adenosyl-L-homocysteine,[2]; metabolite S-adenosyl-L-homocysteine,0.0358
same,Log2(fold change) S-adenosyl-L-methioninamine,[2]; metabolite S-adenosyl-L-methioninamine,-2.1855
same,Log2(fold change) S-adenosyl-L-methionine,[2]; metabolite S-adenosyl-L-methionine,0.0000
same,Log2(fold change) S-methyl-5'-thioadenosine,[2]; metabolite S-methyl-5'-thioadenosine,0.4868
same,Log2(fold change) SD,[2]; metabolite SD,-0.5679
same,Log2(fold change) SDL,[2]; metabolite SDL,0.0000
same,Log2(fold change) SID,[2]; metabolite SID,-0.5481
same,Log2(fold change) Sedoheptulose bisphosphate,[2]; metabolite Sedoheptulose bisphosphate,-0.1986
same,Log2(fold change) Thiamine pyrophosphate,[2]; metabolite Thiamine pyrophosphate,-0.1355
same,Log2(fold changes) UDP-D-glucose,"[2]; metabolite UDP-D-glucose, log2 fold change",0.0446
same,Log2(fold changes) UDP-D-glucuronate,"[2]; metabolite UDP-D-glucuronate, log2 fold change",-0.0014
same,Log2(fold changes) UDP-N-acetyl-glucosamine,"[2]; metabolite UDP-N-acetyl-glucosamine, log2 fold change",-0.0268
same,Log2(fold changes) UDP,"[2]; metabolite UDP, log2 fold change",-0.1898
same,Log2(fold changes) UMP,"[2]; metabolite UMP, log2 fold change",-0.0875
same,Log2(fold changes) UTP,"[2]; metabolite UTP, log2 fold change",0.0000
same,Log2(fold change) hydroxyphenylpyruvate,[2]; metabolite hydroxyphenylpyruvate,0.0000
same,Log2(fold change) hydroxyproline/Aminolevulinate,[2]; metabolite hydroxyproline/Aminolevulinate,-0.3323
same,Log2(fold change) hypoxanthine,[2]; metabolite hypoxanthine,-0.1428
same,Log2(fold change) indole,[2]; metabolite indole,0.0000
same,Log2(fold change) inosine,[2]; metabolite inosine,-0.4892
same,Log2(fold change) isoleucine,[2]; metabolite isoleucine,0.0000
same,Log2(fold change) lactate,[2]; metabolite lactate,-0.3845
same,Log2(fold change) leucine,[2]; metabolite leucine,0.0000
same,Log2(fold change) lysine,[2]; metabolite lysine,-0.8365
same,Log2(fold change) malate,[2]; metabolite malate,-0.6264
same,Log2(fold change) maleic acid,[2]; metabolite maleic acid,-0.6374
same,Log2(fold change) methionine,[2]; metabolite methionine,-0.3116
same,Log2(fold change) myo-inositol,[2]; metabolite myo-inositol,-0.4650
same,Log2(fold change) nicotinamide mononucleotide,[2]; metabolite nicotinamide mononucleotide,-0.2358
same,Log2(fold change) nicotinate,[2]; metabolite nicotinate,0.0360
same,Log2(fold change) ornithine,[2]; metabolite ornithine,-0.4311
same,Log2(fold change) orotate,[2]; metabolite orotate,-0.0365
same,Log2(fold change) orotidine-5'-phosphate,[2]; metabolite orotidine-5'-phosphate,-0.4342
same,Log2(fold change) oxaloacetate,[2]; metabolite oxaloacetate,-0.0755
same,Log2(fold change) p-aminobenzoate,[2]; metabolite p-aminobenzoate,0.0000
same,Log2(fold change) p-hydroxybenzoate,[2]; metabolite p-hydroxybenzoate,0.0000
same,Log2(fold change) pantothenate,[2]; metabolite pantothenate,-0.2337
same,Log2(fold change) phenylalanine,[2]; metabolite phenylalanine,-0.4167
same,Log2(fold change) phenylpyruvate,[2]; metabolite phenylpyruvate,0.0000
same,Log2(fold change) phosphoenolpyruvate,[2]; metabolite phosphoenolpyruvate,-0.3202
same,Log2(fold change) prephenate,[2]; metabolite prephenate,-0.6614
same,Log2(fold change) proline,[2]; metabolite proline,-0.2978
same,Log2(fold change) pyridoxine,[2]; metabolite pyridoxine,-0.1996
same,Log2(fold change) pyruvate,[2]; metabolite pyruvate,-0.7329
same,Log2(fold change) riboflavin,[2]; metabolite riboflavin,0.5336
same,Log2(fold change) ribose,[2]; metabolite ribose,-0.3218
same,Log2(fold change) ribose-phosphate,[2]; metabolite ribose-phosphate,-0.6165
same,Log2(fold change) ribulose-5-phosphate,[2]; metabolite ribulose-5-phosphate,-0.5816
same,Log2(fold change) serine,[2]; metabolite serine,-0.3504
same,Log2(fold change) sn-glycerol-3-phosphate,[2]; metabolite sn-glycerol-3-phosphate,-0.3556
same,Log2(fold change) succinate/Methylmalonic acid,[2]; metabolite succinate/Methylmalonic acid,-0.3870
same,Log2(fold change) succinyl-CoA/methylmalonyl-CoA,[2]; metabolite succinyl-CoA/methylmalonyl-CoA,0.0000
same,Log2(fold change) taurine,[2]; metabolite taurine,-0.0411
same,Log2(fold change) thiamine,[2]; metabolite thiamine,-0.2425
same,Log2(fold change) threonine/homoserine,[2]; metabolite threonine/homoserine,-0.2222
same,Log2(fold change) thymidine,[2]; metabolite thymidine,0.0000
same,Log2(fold changes) thymine,"[2]; metabolite thymine, log2 fold change",0.0000
same,Log2(fold changes) trehalose-6-Phosphate,"[2]; metabolite trehalose-6-Phosphate, log2 fold change",0.0000
same,Log2(fold changes) tryptophan,"[2]; metabolite tryptophan, log2 fold change",-1.0924
same,Log2(fold changes) tyrosine,"[2]; metabolite tyrosine, log2 fold change",-0.3159
same,Log2(fold changes) uridine,"[2]; metabolite uridine, log2 fold change",0.0000
same,Ratio lowest IC50 8hr/IC50 72hr,[3]; 3D7-A10,28.2
same,pIC50,"[3]; 3D7, read-out: Early rings Mean IC50 (IC50^8h), 8-h exposure 0–8 hr, 3D7-A10, survival at 60 h",4.77
same,pIC50,"[3]; 3D7, read-out: Early trophozoites Mean IC50 (IC50^8h), 8-h exposure 16–24 hr, 3D7-A10, survival at 60 h",4.87
same,pIC50,"[3]; 3D7, read-out: Late rings Mean IC50 (IC50^8h), 8-h exposure 8–16 hr, 3D7-A10, survival at 60 h",4.64
same,pIC50,"[3]; 3D7, read-out: Late trophozoites Mean IC50 (IC50^8h), 8-h exposure 24–32 hr, 3D7-A10, survival at 60 h",4.41
same,pIC50,"[3]; 3D7, read-out: Schizonts Mean IC50 (IC50^8h), 8-h exposure 32–40 hr, 3D7-A10, survival at 60 h",4.26
same,IC50^8h relative to IC50^72h value,[3]; most susceptible stages,> 28 fold
